Test results: patent publication US20260069584A1, “METHODS OF TREATING CHRONIC MYELOID LEUKEMIA USING THE TYROSINE KINASE INHIBITOR VODOBATINIB” (Sun Pharma Advanced Research Company Ltd., priority 2022, published 2026)

Tested on: CP CML
Experiment: Part B: disease response in CP CML subjects
Format: in vivo, human
Description: This was a Phase I/2, open-label, single-agent, multicenter, multi-dose, dose-escalation study in subjects with Philadelphia chromosome-positive Ph+ CML (CP CML, AP CML and BP CML) and Ph+ ALL. The primary objectives of this study were to determine the maximum tolerated dose (MTD; or recommended Phase 2 dose [RP2D]) of the compound of Formula I when administered orally and to evaluate its safety.
In this study, the dose-escalation cohort started with an accelerated titration study design (ATD) and shifted to a 3±3 design when subjects in the preceding ATD cohort experienced either grade 2 or higher adverse events (AEs) or dose-limiting toxicity (DLT) during Cycle 1 that was not clearly and incontrovertibly related to the underlying disease or concomitant medications. The DLT period consisted of 28 days (Cycle 1). Subjects experiencing DLTs were managed with dose delays and/or discontinuation and continued in the study until disease progression. Decisions to advance to a succeeding dose level occurred after the evaluation of safety and tolerability data for a given dose level.
Accordingly, the eligible subjects were treated in 4-week cycles of once daily self-administration of the compound of Formula I. The administration was after an overnight fast, or after maintaining approximately 2 hours of fasting before and after the dosing in all cycles.
For the cohorts, where the 3±3 design applies, 3 subjects were enrolled initially. If 2 of these subjects experienced a Grade 2 or more toxicity (that was not clearly and incontrovertibly related to the underlying disease or concomitant medications), subsequent cohorts were escalated according to smaller increments. Further, if there were no DLTs in the first 3 subjects, dose escalation to the next higher dose level was allowed to proceed. If 1 of the 3 subjects experienced a DLT, that dose level was expanded to 6 subjects (3 additional subjects were enrolled). If 2 subjects at a given dose level experienced a DLT, the MTD was considered to have been exceeded. The next lower dose level was expanded to 6 subjects, or if 6 subjects had already been enrolled and no more than 1 of the 6 subjects experienced a DLT, then this lower dose level was considered the MTD. Additional subjects were enrolled in dose escalation cohorts for further assessment of safety and efficacy of the compound of Formula 1 at doses that were tolerated (i.e., doses that have <2 DLTs in 6 enrolled subjects or <1 DLT in 3 enrolled subjects). Thus 204 mg was arrived at as MTD. A subject experiencing a DLT was allowed to continue therapy with a reduced dose. Subjects who experienced a DLT and recovered were treated at the next lower dose level until disease progression or other events requiring further dose reduction existed. For cohorts at Dose Level 2 or higher, a further dose reduction (i.e., up to 2 levels lower than their originally assigned dose) was implemented in the case of a further DLT or other non-DLT events requiring a dose reduction, if and when the event leading to dose reduction returned to Grade 1 or lower in severity. The reduced dose was re-escalated to the original or higher dose (i.e., the dose for which safety had been established in the dose escalation cohort) considering subject safety and response to the compound of Formula I. The subject was discontinued from treatment using the compound of Formula I, if dose reduction below 48 mg was required.
The study was conducted over a period of 60 months (5 years) which was divided in 28-days cycle. In the first two cycles, the dose administration was started on day 1 and the subject's assessments were performed on day 1, day 2, day 3, day 8, day 15 and day 22. From Cycle 3 onwards, the assessments were performed every 3 months (i.e., on day 28 of Cycle 3, followed by day 28 of Cycle 6 which was further followed by day 28 of Cycle 9). […]

Structure (SMILES): Cc1ccc(C(=O)NNC(=O)c2c(C)cccc2Cl)cc1C#Cc1cnc2ccccc2c1 [compound of Formula I, N′-(2-chloro-6-methylbenzoyl)-4-methyl-3-[2-(3-quinolyl)ethynyl]-benzohydrazide]
- Best Cytogenetic Response: Complete Response (12 mg (N = 1) ESC): 1(100)
- Best Cytogenetic Response: Major Cytogenetic Response (12 mg (N = 1) ESC): 1(100)
- Best Cytogenetic Response: Minimal Response (12 mg (N = 1) ESC): 0
- Best Cytogenetic Response: Minor Response (12 mg (N = 1) ESC): 0
- Best Cytogenetic Response: No Response (12 mg (N = 1) ESC): 0
- Best Cytogenetic Response: Partial Response (12 mg (N = 1) ESC): 0
- Best Hematologic Response: Complete Response (12 mg (N = 1) ESC): 1(100)
- Best Hematologic Response: Major Hematologic Response (12 mg (N = 1) ESC): 1(100)
- Best Hematologic Response: No Evidence of Leukemia (12 mg (N = 1) ESC): 0
- Best Hematologic Response: No Response (12 mg (N = 1) ESC): 0
- Best Molecular Response: Complete Response (12 mg (N = 1) ESC): 0
- Best Molecular Response: Major Response (12 mg (N = 1) ESC): 0
- Best Cytogenetic Response: Complete Response (48 mg (N = 3) ESC): 2(66.7)
- Best Cytogenetic Response: Major Cytogenetic Response (48 mg (N = 3) ESC): 2(66.7)
- Best Cytogenetic Response: Minimal Response (48 mg (N = 3) ESC): 0
- Best Cytogenetic Response: Minor Response (48 mg (N = 3) ESC): 0
- Best Cytogenetic Response: No Response (48 mg (N = 3) ESC): 0
- Best Cytogenetic Response: Partial Response (48 mg (N = 3) ESC): 0
- Best Hematologic Response: Complete Response (48 mg (N = 3) ESC): 2(66.7)
- Best Hematologic Response: Major Hematologic Response (48 mg (N = 3) ESC): 2(66.7)
- Best Hematologic Response: No Evidence of Leukemia (48 mg (N = 3) ESC): 0
- Best Hematologic Response: No Response (48 mg (N = 3) ESC): 1(33.3)
- Best Molecular Response: Complete Response (48 mg (N = 3) ESC): 2(66.7)
- Best Molecular Response: Major Response (48 mg (N = 3) ESC): 2(66.7)
- Best Molecular Response: No Response (48 mg (N = 3) ESC): 0
- Best Cytogenetic Response: Complete Response (66 mg (N = 4) ESC): 2(50.0)
- Best Cytogenetic Response: Major Cytogenetic Response (66 mg (N = 4) ESC): 2(50.0)
- Best Cytogenetic Response: Minimal Response (66 mg (N = 4) ESC): 1(25.0)
- Best Cytogenetic Response: Minor Response (66 mg (N = 4) ESC): 0
- Best Cytogenetic Response: No Response (66 mg (N = 4) ESC): 1(25.0)
- Best Cytogenetic Response: Partial Response (66 mg (N = 4) ESC): 0
- Best Hematologic Response: Complete Response (66 mg (N = 4) ESC): 3(75.0)
- Best Hematologic Response: Major Hematologic Response (66 mg (N = 4) ESC): 3(75.0)
- Best Hematologic Response: No Evidence of Leukemia (66 mg (N = 4) ESC): 0
- Best Hematologic Response: No Response (66 mg (N = 4) ESC): 1(25.0)
- Best Molecular Response: Complete Response (66 mg (N = 4) ESC): 1(25.0)
- Best Molecular Response: Major Response (66 mg (N = 4) ESC): 1(25.0)
- Best Molecular Response: No Response (66 mg (N = 4) ESC): 3(75.0)
- Best Cytogenetic Response: Complete Response (90 mg (N = 2) ESC): 0
- Best Cytogenetic Response: Major Cytogenetic Response (90 mg (N = 2) ESC): 1(50.0)
- Best Cytogenetic Response: Minimal Response (90 mg (N = 2) ESC): 0
- Best Cytogenetic Response: Minor Response (90 mg (N = 2) ESC): 0
- Best Cytogenetic Response: No Response (90 mg (N = 2) ESC): 1(50.0)
- Best Cytogenetic Response: Partial Response (90 mg (N = 2) ESC): 1(50.0)
- Best Hematologic Response: Complete Response (90 mg (N = 2) ESC): 2(100)
- Best Hematologic Response: Major Hematologic Response (90 mg (N = 2) ESC): 2(100)
- Best Hematologic Response: No Evidence of Leukemia (90 mg (N = 2) ESC): 0
- Best Hematologic Response: No Response (90 mg (N = 2) ESC): 0
- Best Molecular Response: Complete Response (90 mg (N = 2) ESC): 0
- Best Molecular Response: Major Response (90 mg (N = 2) ESC): 1(50.0)
- Best Molecular Response: No Response (90 mg (N = 2) ESC): 1(50.0)
- Best Cytogenetic Response: Complete Response (126 mg (N = 4) ESC): 2(50.0)
- Best Cytogenetic Response: Major Cytogenetic Response (126 mg (N = 4) ESC): 2(50.0)
- Best Cytogenetic Response: Minimal Response (126 mg (N = 4) ESC): 1(25.0)
- Best Cytogenetic Response: Minor Response (126 mg (N = 4) ESC): 0
- Best Cytogenetic Response: No Response (126 mg (N = 4) ESC): 1(25.0)
- Best Cytogenetic Response: Partial Response (126 mg (N = 4) ESC): 0
- Best Hematologic Response: Complete Response (126 mg (N = 4) ESC): 4(100)
- Best Hematologic Response: Major Hematologic Response (126 mg (N = 4) ESC): 4(100)
- Best Hematologic Response: No Evidence of Leukemia (126 mg (N = 4) ESC): 0
- Best Hematologic Response: No Response (126 mg (N = 4) ESC): 0
- Best Molecular Response: Complete Response (126 mg (N = 4) ESC): 1(25.0)
- Best Molecular Response: Major Response (126 mg (N = 4) ESC): 1(25.0)
- Best Molecular Response: No Response (126 mg (N = 4) ESC): 3(75.0)
- Best Cytogenetic Response: Complete Response (174 mg (N = 7) ESC): 3(42.9)
- Best Cytogenetic Response: Major Cytogenetic Response (174 mg (N = 7) ESC): 3(42.9)
- Best Cytogenetic Response: Minimal Response (174 mg (N = 7) ESC): 2(28.6)
- Best Cytogenetic Response: Minor Response (174 mg (N = 7) ESC): 1(14.3)
- Best Cytogenetic Response: No Response (174 mg (N = 7) ESC): 0
- Best Cytogenetic Response: Partial Response (174 mg (N = 7) ESC): 0
- Best Hematologic Response: Complete Response (174 mg (N = 7) ESC): 4(57.1)
- Best Hematologic Response: Major Hematologic Response (174 mg (N = 7) ESC): 4(57.1)
- Best Hematologic Response: No Evidence of Leukemia (174 mg (N = 7) ESC): 0
- Best Hematologic Response: No Response (174 mg (N = 7) ESC): 2(28.6)
- Best Molecular Response: Complete Response (174 mg (N = 7) ESC): 1(14.3)
- Best Molecular Response: Major Response (174 mg (N = 7) ESC): 3(42.9)
- Best Molecular Response: No Response (174 mg (N = 7) ESC): 3(42.9)
- Best Cytogenetic Response: Complete Response (174 mg (N = 10) EXP): 6(60.0)
- Best Cytogenetic Response: Major Cytogenetic Response (174 mg (N = 10) EXP): 7(70.0)
- Best Cytogenetic Response: Minimal Response (174 mg (N = 10) EXP): 3(30.0)
- Best Cytogenetic Response: Minor Response (174 mg (N = 10) EXP): 0
- Best Cytogenetic Response: No Response (174 mg (N = 10) EXP): 0
- Best Cytogenetic Response: Partial Response (174 mg (N = 10) EXP): 1 (10.0)
- Best Hematologic Response: Complete Response (174 mg (N = 10) EXP): 10(100)
- Best Hematologic Response: Major Hematologic Response (174 mg (N = 10) EXP): 10(100)
- Best Hematologic Response: No Evidence of Leukemia (174 mg (N = 10) EXP): 0
- Best Hematologic Response: No Response (174 mg (N = 10) EXP): 0
- Best Molecular Response: Complete Response (174 mg (N = 10) EXP): 1(10.0)
- Best Molecular Response: Major Response (174 mg (N = 10) EXP): 1(10.0)
- Best Molecular Response: No Response (174 mg (N = 10) EXP): 9(90.0)
- Best Cytogenetic Response: Complete Response (204 mg (N = 6) ESC): 4(66.7)
- Best Cytogenetic Response: Major Cytogenetic Response (204 mg (N = 6) ESC): 6(100)
- Best Cytogenetic Response: Minimal Response (204 mg (N = 6) ESC): 0
- Best Cytogenetic Response: Minor Response (204 mg (N = 6) ESC): 0
- Best Cytogenetic Response: No Response (204 mg (N = 6) ESC): 0
- Best Cytogenetic Response: Partial Response (204 mg (N = 6) ESC): 2(33.3)
- Best Hematologic Response: Complete Response (204 mg (N = 6) ESC): 6(100)
- Best Hematologic Response: Major Hematologic Response (204 mg (N = 6) ESC): 6(100)
- Best Hematologic Response: No Evidence of Leukemia (204 mg (N = 6) ESC): 0
